Reference: US7786163B2, “Constrained cyano compounds” (Forest Laboratories Holdings Limited (BM), priority 2004, dated 2010)
Counter-ions that a name gives are not always drawn.

How the values were obtained:
Assay type in all cases: biochemical
human DPP-VII = target: T1, human DPP-VII (Homo sapiens, UniProt Q9UHL4); assay: DPP-VII inhibition assay (Lys-Pro AMC), selectivity vs DPP-IV; details: selectivity for DPP-IV relative to DPP-VII
T1 construct: The full length cDNAs for human DPP-VII, DPP-VIII, DPP-IX, and FAP were obtained from Open Biosystems; FLAG (N); made in house; host or cells: S9 (Sf9) insect cells, baculovirus (pFastBac, Bac-to-Bac)
Experimental: (§1) Materials. S9 insect cells and Sf-900 II SFM media were from Invitrogen. Anti-FLAG M2 immunoaffinity gel was from Sigma. Gly-Pro-AMC, Lys-Pro AMC, and Ala-Pro AMC were from Enzyme Systems. IC50 calculations were performed by non-linear regression analysis using Prism software (GraphPad).
(§2) Preparation of DPP-VII DPP-VIII DPP-IX, and FAP baculovirus constructs. The full length cDNAs for human DPP-VII, DPP-VIII, DPP-IX, and FAP were obtained from Open Biosystems. The cDNAs were cloned into the pFastBac vector with the addition of an N-terminal FLAG tag on DPP-VII, C-terminal 6× His tags on DPP-VIII and DPP-IX, and an N-terminal 6× His tag on FAP (Sun 2002, Qi 2003, and Chen 2004). Baculovirus was prepared using the Bac-to-Bac Baculovirus Expression System (Invitrogen). The cDNAs in the final baculovirus constructs were sequence verified.
(§3) Baculovirus expression. S9 cells were grown to mid log phase at 27C with shaking at 125 RPM and then adjusted to 2×10E6/ml just prior to baculovirus infection. Infection with DPP-VII, DPP-VIII, DPP-IX, and FAP baculoviral constructs were all performed at an MOI of 4. The infected cells were grown for 48 hours and the cell pellets harvested and frozen until purification. DPP-VII was purified using anti-FLAG immunoaffinity gel according to the manufacturer's instructions. DPP-VIII, DPP-IX, and FAP were purified using a B-PER 6× His Fusion Protein Column Purification Kit from Pierce.
(§4) C50 assay. Recombinant DPPs were diluted in reaction buffer to give fluorescence values of 5000-20000 counts in the “enzyme only wells” 20 min after addition of substrate at 27° C. Reaction buffers were 25 mM (2-(4-Morpholino)-Ethane Sulfonic Acid), pH 5.5 for DPP-VII, 25 mM Tris, pH 8, 1% Triton X-100, 100 mM NaCl for DPP-VIII, and 25 mM Tris pH 8 for DPP-IX and FAP. Test wells in a 96-well microtiter plate contained 88 uL of diluted DPP and 2.5 ul of titrated compound in 50 mM glycine, pH 2.6. “Enzyme only” wells contained 88 uL of diluted DPP and 2.5 ul of glycine buffer. “No enzyme” wells contained 88 uL of reaction buffer without DPP and 2.5 ul of glycine buffer. All assays were done in triplicate. The plate was incubated at 27° C. for 10 min and then cooled on ice for 10 min. Ten microliters of substrate diluted in reaction buffer (40 uM final concentration) without Triton or NaCl were then added to all wells followed by incubation at 27C for 20 min. Substrates were Lys-Pro AMC for DPP-VII, and Ala-Pro AMC for DPP-VIII, DPP-IX, and FAP. Fluorescence in each well was measured at settings of 380/460 nm.
(§5) Compounds of the invention were tested for inhibition of DPP-IV according to Example 4 and DPP-VII, VIII, IX and FAP according to the present methods.

human DPP-VIII = target: T2, human DPP-VIII (Homo sapiens, UniProt Q6V1X1); assay: DPP-VIII inhibition assay (Ala-Pro AMC), selectivity vs DPP-IV; details: selectivity for DPP-IV relative to DPP-VIII
T2 construct: The full length cDNAs for human DPP-VII, DPP-VIII, DPP-IX, and FAP were obtained from Open Biosystems; 6xHis (C); made in house; host or cells: S9 (Sf9) insect cells, baculovirus (pFastBac, Bac-to-Bac)
T2 sequence (Q6V1X1 whole entry): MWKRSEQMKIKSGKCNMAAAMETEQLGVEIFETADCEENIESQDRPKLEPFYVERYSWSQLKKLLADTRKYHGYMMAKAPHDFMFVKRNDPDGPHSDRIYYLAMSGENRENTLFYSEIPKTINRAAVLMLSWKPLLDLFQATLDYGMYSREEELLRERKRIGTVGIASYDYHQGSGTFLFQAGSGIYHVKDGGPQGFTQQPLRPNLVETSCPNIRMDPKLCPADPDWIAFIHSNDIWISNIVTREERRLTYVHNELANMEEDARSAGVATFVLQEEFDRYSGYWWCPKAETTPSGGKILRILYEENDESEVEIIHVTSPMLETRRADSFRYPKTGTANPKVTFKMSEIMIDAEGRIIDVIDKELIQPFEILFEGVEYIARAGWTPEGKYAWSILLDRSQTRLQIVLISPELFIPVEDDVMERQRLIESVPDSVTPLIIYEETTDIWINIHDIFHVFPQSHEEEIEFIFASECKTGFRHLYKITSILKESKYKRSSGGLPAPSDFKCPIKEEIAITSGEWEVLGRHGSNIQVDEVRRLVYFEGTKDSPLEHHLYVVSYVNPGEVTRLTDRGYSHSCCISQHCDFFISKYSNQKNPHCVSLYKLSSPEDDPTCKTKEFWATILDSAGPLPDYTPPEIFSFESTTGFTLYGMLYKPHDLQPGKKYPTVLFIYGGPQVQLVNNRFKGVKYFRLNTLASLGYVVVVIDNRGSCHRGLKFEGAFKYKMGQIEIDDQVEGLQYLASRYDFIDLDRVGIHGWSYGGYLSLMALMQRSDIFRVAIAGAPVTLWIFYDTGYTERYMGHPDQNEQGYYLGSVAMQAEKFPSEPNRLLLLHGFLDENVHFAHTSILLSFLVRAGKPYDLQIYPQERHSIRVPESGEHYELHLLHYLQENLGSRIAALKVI
Experimental: as §1, §2, §3, §4, §5

human DPP-IX = target: T3, human DPP-IX (Homo sapiens, UniProt Q86TI2); assay: DPP-IX inhibition assay (Ala-Pro AMC), selectivity vs DPP-IV; details: selectivity for DPP-IV relative to DPP-IX
T3 construct: The full length cDNAs for human DPP-VII, DPP-VIII, DPP-IX, and FAP were obtained from Open Biosystems; 6xHis (C); made in house; host or cells: S9 (Sf9) insect cells, baculovirus (pFastBac, Bac-to-Bac)
T3 sequence (Q86TI2 whole entry): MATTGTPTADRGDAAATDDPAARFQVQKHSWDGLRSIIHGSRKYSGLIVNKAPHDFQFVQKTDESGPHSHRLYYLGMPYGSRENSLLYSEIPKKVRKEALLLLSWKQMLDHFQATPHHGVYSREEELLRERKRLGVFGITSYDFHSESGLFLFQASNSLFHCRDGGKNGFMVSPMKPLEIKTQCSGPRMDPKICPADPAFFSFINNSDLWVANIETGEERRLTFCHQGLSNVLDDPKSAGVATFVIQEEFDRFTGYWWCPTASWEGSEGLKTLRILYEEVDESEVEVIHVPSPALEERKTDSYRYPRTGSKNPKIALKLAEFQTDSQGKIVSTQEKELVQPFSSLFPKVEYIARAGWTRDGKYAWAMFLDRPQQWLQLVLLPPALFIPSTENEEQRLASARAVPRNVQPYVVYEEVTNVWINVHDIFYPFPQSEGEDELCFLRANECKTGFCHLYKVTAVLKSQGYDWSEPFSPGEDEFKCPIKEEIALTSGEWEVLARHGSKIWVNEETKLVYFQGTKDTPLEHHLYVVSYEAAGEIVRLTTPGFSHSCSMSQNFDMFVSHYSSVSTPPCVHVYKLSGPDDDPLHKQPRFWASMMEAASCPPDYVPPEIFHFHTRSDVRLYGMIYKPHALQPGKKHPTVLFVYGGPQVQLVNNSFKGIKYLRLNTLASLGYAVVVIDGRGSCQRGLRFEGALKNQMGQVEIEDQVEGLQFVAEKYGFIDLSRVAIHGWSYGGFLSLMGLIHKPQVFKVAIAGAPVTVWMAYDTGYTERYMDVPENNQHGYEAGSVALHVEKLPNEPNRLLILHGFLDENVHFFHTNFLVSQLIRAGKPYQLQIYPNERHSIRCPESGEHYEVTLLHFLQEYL
Experimental: as §1, §2, §3, §4, §5

human FAP = target: T4, human FAP (Homo sapiens, UniProt Q12884); assay: FAP inhibition assay (Ala-Pro AMC), selectivity vs DPP-IV; details: selectivity for DPP-IV relative to FAP
T4 construct: The full length cDNAs for human DPP-VII, DPP-VIII, DPP-IX, and FAP were obtained from Open Biosystems; 6xHis (N); made in house; host or cells: S9 (Sf9) insect cells, baculovirus (pFastBac, Bac-to-Bac)
T4 sequence (Q12884 1-760): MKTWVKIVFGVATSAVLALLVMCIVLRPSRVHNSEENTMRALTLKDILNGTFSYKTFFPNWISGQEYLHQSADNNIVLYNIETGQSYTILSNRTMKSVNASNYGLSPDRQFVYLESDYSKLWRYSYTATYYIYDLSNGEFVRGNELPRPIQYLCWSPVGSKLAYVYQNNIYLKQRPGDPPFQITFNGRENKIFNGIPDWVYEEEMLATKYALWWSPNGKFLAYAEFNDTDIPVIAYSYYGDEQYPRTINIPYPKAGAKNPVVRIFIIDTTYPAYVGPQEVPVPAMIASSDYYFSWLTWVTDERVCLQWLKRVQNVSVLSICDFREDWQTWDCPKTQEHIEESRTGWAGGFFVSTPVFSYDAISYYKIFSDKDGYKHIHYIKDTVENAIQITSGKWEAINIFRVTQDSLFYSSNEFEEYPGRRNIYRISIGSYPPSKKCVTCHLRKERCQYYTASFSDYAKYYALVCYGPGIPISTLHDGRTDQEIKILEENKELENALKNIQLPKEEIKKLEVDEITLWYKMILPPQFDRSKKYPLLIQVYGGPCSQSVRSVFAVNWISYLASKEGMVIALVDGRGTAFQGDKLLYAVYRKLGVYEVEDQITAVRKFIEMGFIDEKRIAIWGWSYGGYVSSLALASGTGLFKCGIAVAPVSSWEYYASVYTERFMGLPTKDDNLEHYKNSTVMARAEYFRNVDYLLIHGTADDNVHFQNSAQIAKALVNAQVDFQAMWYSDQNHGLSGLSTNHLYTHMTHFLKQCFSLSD
Experimental: as §1, §2, §3, §4, §5

Row | SMILES | Selectivity Ratios DPP-VII (human DPP-VII) | Selectivity Ratios DPP-VIII (human DPP-VIII) | Selectivity Ratios DPP-IX (human DPP-IX) | Selectivity Ratios FAP (human FAP)
1 | N#CC1CSC2CC(N)(Cc3ccccc3)C(=O)N12 (centres unmarked) [Compound 28, 6-Amino-6-benzyl-5-oxo-hexahydro-pyrrolo[2,1-b]thiazole-3-carbonitrile hydrochloride] | B (10 < B < 100) | B (10 < B < 100) | B (10 < B < 100) | B (10 < B < 100)
2 | Cl.N#C[C@@H]1CS[C@H]2C[C@](N)(c3ccccc3)C(=O)N12 [Compound 31, 6-Amino-5-oxo-6-phenyl-hexahydro-pyrrolo[2,1-b]thiazole-3-carbonitrile hydrochloride] | C (C ≧ 100) | C (C ≧ 100) | B (10 < B < 100) | C (C ≧ 100)
3 | Cl.N#C[C@@H]1CS[C@H]2C[C@](N)(C3CCCCC3)C(=O)N12 [Compound 24, 6-Amino-6-cyclohexyl-5-oxo-hexahydro-pyrrolo[2,1-b]thiazole-3-carbonitrile hydrochloride] | B (10 < B < 100) | A (A ≦ 10) | A (A ≦ 10) | C (C ≧ 100)
4 | Cl.N#C[C@@H]1CS[C@H]2C[C@@](N)(c3ccccc3)C(=O)N12 [Compound 34] | C (C ≧ 100) | B (10 < B < 100) | A (A ≦ 10) | C (C ≧ 100)
5 | Cl.N#C[C@@H]1CS[C@H]2C[C@@](N)(C3CCCC3)C(=O)N12 [Compound 33] | B (10 < B < 100) | B (10 < B < 100) | A (A ≦ 10) | B (10 < B < 100)
6 | CC[C@@]1(N)C[C@@H]2SC[C@@H](C#N)N2C1=O.Cl [Compound 21, 6-Amino-6-ethyl-5-oxo-hexahydro-pyrrolo[2,1-b]thiazole-3-carbonitrile hydrochloride] | C (C ≧ 100) | B (10 < B < 100) | A (A ≦ 10) | C (C ≧ 100)
7 | Cl.N#C[C@@H]1CS[C@H]2C[C@](N)(CCc3ccccc3)C(=O)N12 [Compound 27, 6-Amino-5-oxo-6-phenethyl-hexahydro-pyrrolo[2,1-b]thiazole-3-carbonitrile hydrochloride] | A (A ≦ 10) | A (A ≦ 10) | A (A ≦ 10) | B (10 < B < 100)
8 | CC(C)C[C@@]1(N)C[C@@H]2SC[C@@H](C#N)N2C1=O.Cl [Compound 25, 6-Amino-6-isobutyl-5-oxo-hexahydro-pyrrolo[2,1-b]thiazole-3-carbonitrile hydrochloride] | A (A ≦ 10) | B (10 < B < 100) | A (A ≦ 10) | C (C ≧ 100)
9 | Cl.N#C[C@@H]1CS[C@H]2C[C@@H](N)C(=O)N12 [Compound 7, 6-Amino-5-oxo-hexahydro-pyrrolo[2,1-b]thiazole-3-carbonitrile] | C (C ≧ 100) | B (10 < B < 100) | A (A ≦ 10) | C (C ≧ 100)
10 | CC(C)[C@@]1(N)C[C@@H]2SC[C@@H](C#N)N2C1=O.Cl [Compound 22, 6-Amino-6-isopropyl-5-oxo-hexahydro-pyrrolo[2,1-b]thiazole-3-carbonitrile hydrochloride] | C (C ≧ 100) | B (10 < B < 100) | A (A ≦ 10) | C (C ≧ 100)
11 | Cl.N#C[C@@H]1CS[C@H]2C[C@](N)(C3CCCC3)C(=O)N12 [Compound 23, 6-Amino-6-cyclopentyl-5-oxo-hexahydro-pyrrolo[2,1-b]thiazole-3-carbonitrile hydrochloride] | B (10 < B < 100) | A (A ≦ 10) | A (A ≦ 10) | C (C ≧ 100)
12 | Cl.N#C[C@@H]1CS[C@H]2C[C@](N)(CC3CCCCC3)C(=O)N12 [Compound 29, 6-Amino-6-cyclohexylmethyl-5-oxo-hexahydro-pyrrolo[2,1-b]thiazole-3-carbonitrile hydrochloride] | A (A ≦ 10) | A (A ≦ 10) | A (A ≦ 10) | C (C ≧ 100)
13 | CC[C@H](C)[C@@]1(N)C[C@@H]2SC[C@@H](C#N)N2C1=O.Cl [Compound 26, 6-Amino-6-sec-butyl-5-oxo-hexahydro-pyrrolo[2,1-b]thiazole-3-carbonitrile hydrochloride] | B (10 < B < 100) | B (10 < B < 100) | A (A ≦ 10) | C (C ≧ 100)
14 | Cl.N#C[C@@H]1CS[C@H]2C[C@](N)(c3ccc(F)cc3)C(=O)N12 [Compound 30, 6-Amino-6-(4-fluoro-phenyl)-5-oxo-hexahydro-pyrrolo[2,1-b]thiazole-3-carbonitrile hydrochloride] | B (10 < B < 100) | B (10 < B < 100) | A (A ≦ 10) | B (10 < B < 100)
